According to patent US20220280594A1, “APPLICATION OF POLYPEPTIDE OR DERIVATIVE THEREOF” (CHENGDU HUITAI BIOMEDICINE CO., LTD., priority 2019, published 2022):
Ends that are not written are not given here. PEG = not defined here

Assays:
[1] = system: human lung cancer cells (A549) subcutaneous xenograft; assay: lung cancer subcutaneous xenograft animal model, intratumoral injection; type: in vivo, mice (BALB/c-nu/nu); details: intratumoral 5 mg/kg once every other day, 20 days
Experimental: Experimental animals: 4-6 weeks old female immunodeficiency mice (BALB/c-nu/nu, Beijing Vital River Laboratory Animal Technology Co., Ltd.).
Subcutaneous xenograft animal model. The number of cells inoculated subcutaneously vin mice was about 2×10^6/200 μL. When the volume of the subcutaneous tumor was greater than 100 mm^3, the mice were randomly divided into groups and subjected to treatment. When the mass volume of the tumors in model control group reached 2000 mm^3 or the animal dies, the treatment ended. The animals were dissected, the tumors were taken out, and the weight and volume of the tumors were measured. During the period of the entire experiment, the mice were observed and the body weight was measured every other day.
The method used for the drug efficacy test in the animal model of the subcutaneous xenograft derived from lung cancer cells was as described in Example 5. The tumor cells were human lung cancer cells (A549), and the route of administration was intratumoral injection. There were two groups: the model control group and the polypeptide or its derivative treatment group (N1-N12). The drug dosage of the treatment group was 5 mg/kg, once every other day and the treatment time was 10 days.
The procedure of the efficacy test in this example, route and dosage of administration were the same as in Example 9. The peptides used in the experiment were N13-N32. The treatment time was 20 days.

[2] = system: human liver adenocarcinoma cells (SK-HEP-1); assay: transwell invasion assay, SK-HEP-1 cells; type: cell-based; details: SK-HEP-1 transwell invasion, 10 μM, 24 hours; control group 767 ± 91
Description: (§1) The Transwell chamber system was used in the transwell cell invasion experiment. The chamber has an upper layer and a lower layer, which are separated by an artificial semipermeable membrane in the middle. The upper surface of the semipermeable membrane is coated with a layer of artificial matrigel to simulate extracellular matrix. Cells that have invaded through the matrigel and semi-permeable membrane will attach to the lower surface of the semi-permeable membrane. The invasion ability is evaluated by counting the number of cells on the lower surface of the semi-permeable membrane. The number of cells that have invaded is negatively correlated with the inhibitory effect of the drug on the invasion ability of the tumor cells. Transwell invasion assay was performed as follows: tumor cells were cultured in vitro, cells in logarithmic growth phase were collected, and cell suspension was prepared with fresh serum-free medium at a density of 2-3×10^5 cells/mL. Cells were inoculated, 100 μL/well cell suspension (serum-free medium) in the upper chamber and 600 μL/well complete culture medium in the lower chamber. After incubated in 37° C., 5% CO2 incubator for 4-5 hours, serum-free medium (100 μL/well) was added to the control group, and serum-free medium containing polypeptide or derivative thereof (N1-N54) was added to the upper chamber of the treatment group (100 μL/well), the final concentration of the peptide or derivative thereof in the upper chamber was 10 μM. The cells were incubated continuously for 24 hours, and then fixed with methanol and stained with crystal violet. Images were taken under a microscope and the number of invaded cells was counted with ImageJ.
This example was a transwell cell invasion experiment to evaluate the inhibitory effect of the polypeptide or derivative thereof (N1-N54) on the invasion ability of human liver adenocarcinoma cells (SK-HEP-1). The experimental method was as described in Example 4.

[3] = system: human liver adenocarcinoma cells (SK-HEP-1); assay: transwell migration assay, SK-HEP-1 cells; type: cell-based; details: SK-HEP-1 transwell migration, 10 μM, 24 hours; control group 1 782 ± 108, control group 2 768 ± 86
Experimental: as §1, with “migration” for “invasion”, “middle.” for “middle. The upper surface of the semipermeable membrane is coated with a layer of artificial matrigel to simulate extracellular matrix.”, “migrated” for “invaded”, “the” for “the matrigel and”
This example was a transwell cell migration experiment to evaluate the inhibitory effect of the polypeptide or derivative thereof (N1-N54) on the migration ability of human liver adenocarcinoma cells (SK-HEP-1). The experimental method was as described in Example 3.

Row | Substance | Weight of tumor (g) (mean ± SD) ([1]; control 1.92 ± 0.13) | Volume of tumor (mm^3) (mean ± SD) ([1]; control 1700.16 ± 305.72) | Number of cells (mean ± SD, P), invaded cells [2] | Number of cells (mean ± SD, P), migrated cells [3]
1 | N13: SEQ ID NO: 1 with deletion of positions 15-18 and positions 1-5 (LAKENVTQD) | 1.09 ± 0.09 g | 986.7 ± 261.02 mm^3 | 258 ± 32,**** | 25 ± 12,****
2 | N33: SEQ ID NO: 1 with deletion of positions 1-5, addition of one amino acid and PEG modification at the carboxyl terminal (LAKENVTQDAEDNC-{PEG}; reading uncertain) | – | – | 197 ± 32,**** | 354 ± 31,***
3 | N34: SEQ ID NO: 1 with A15R, addition of one amino acid at the carboxyl terminal, PEG modification at the amino terminal ({PEG}-YRVRFLAKENVTQDREDNC; reading uncertain) | – | – | 187 ± 38,**** | 260 ± 32,****
4 | N35: SEQ ID NO: 1 with A15R, addition of one amino acid and PEG modification at the carboxyl terminal (YRVRFLAKENVTQDREDNC-{PEG}; reading uncertain) | – | – | 338 ± 43,*** | 315 ± 36,***
5 | N37: SEQ ID NO: 1 with addition of two amino acids to the carboxyl terminal and PEG modification at the amino terminal ({PEG}-YRVRFLAKENVTQDAEDNCT; reading uncertain) | – | – | 233 ± 13,**** | 84 ± 7,****
6 | N38: SEQ ID NO: 1 with one amino acid added at each terminal and PEG modification at the carboxyl terminal (FYRVRFLAKENVTQDAEDNC-{PEG}; reading uncertain) | – | – | 249 ± 42,**** | 380 ± 32,***
7 | N39: SEQ ID NO: 1 with addition of two amino acids and PEG modification at the carboxyl terminal (YRVRFLAKENVTQDAEDNTC-{PEG}; reading uncertain) | – | – | 88 ± 25,**** | 261 ± 25,****
8 | N40: SEQ ID NO: 1 with deletion of positions 1-5 and 15-18, PEG at the amino terminal, two amino acids added at the carboxyl terminal ({PEG}-LAKENVTQDRC; reading uncertain) | – | – | 123 ± 26,**** | 290 ± 33,****
9 | N41: SEQ ID NO: 1 with addition of two amino acids at the amino terminal, deletion of position 18, PEG at the carboxyl terminal (FRYRVRFLAKENVTQDAED-{PEG}; reading uncertain) | – | – | 58 ± 12,**** | 280 ± 24,****
10 | N42: SEQ ID NO: 1 with deletion of positions 1-5 and 15-18, PEG at the amino terminal, one amino acid added at the carboxyl terminal ({PEG}-LAKENVTQDR; reading uncertain) | – | – | 149 ± 29,**** | 106 ± 17,****
11 | N43: SEQ ID NO: 1 with addition of one amino acid at the amino terminal, deletion of position 18, PEG at the carboxyl terminal (RYRVRFLAKENVTQDAED-{PEG}; reading uncertain) | – | – | 107 ± 16,**** | 157 ± 29,****
12 | N45: SEQ ID NO: 1 with V11R, deletion of positions 1-5 and 15-18, PEG modification at the carboxyl terminal (LAKENRTQD-{PEG}; reading uncertain) | – | – | 155 ± 10,**** | 162 ± 15,****
13 | N47: SEQ ID NO: 1 with N18R, deletion of positions 1-2, one amino acid added and PEG at the carboxyl terminal (VRFLAKENVTQDAEDRC-{PEG}; reading uncertain) | – | – | 85 ± 16,**** | 179 ± 17,****
14 | N48: SEQ ID NO: 1 with A7R, deletion of position 11 and position 18, PEG modification at the carboxyl terminal (YRVRFLRKENTQDAED-{PEG}; reading uncertain) | – | – | 109 ± 10,**** | 374 ± 22,***
15 | N49: SEQ ID NO: 1 with A7R, deletion of positions 1-2 and position 18, PEG modification at the carboxyl terminal (VRFLRKENVTQDAED-{PEG}; reading uncertain) | – | – | 335 ± 32,*** | 137 ± 11,****
16 | N50: SEQ ID NO: 1 with N18R, addition of 2 amino acid at the carboxyl terminal, PEG modification at the amino terminal ({PEG}-YRVRFLAKENVTQDAEDRCT; reading uncertain) | – | – | 243 ± 46,**** | 192 ± 16,****
17 | N51: SEQ ID NO: 1 with A15R, one amino acid added at each terminal, PEG modification at the amino terminal ({PEG}-FYRVRFLAKENVTQDREDNC; reading uncertain) | – | – | 248 ± 39,**** | 306 ± 46,***
18 | N52: SEQ ID NO: 1 with N18R, addition of two amino acids and PEG modification at the carboxyl terminal (YRVRFLAKENVTQDAEDRCT-{PEG}; reading uncertain) | – | – | 132 ± 29,**** | 318 ± 37,***
19 | N53: SEQ ID NO: 1 with A15R, one amino acid added at each terminal, PEG modification at the carboxyl terminal (FYRVRFLAKENVTQDREDNC-{PEG}; reading uncertain) | – | – | 143 ± 19,**** | 265 ± 32,****
20 | N54: SEQ ID NO: 1 with A7R, addition of two amino acids and PEG modification at the carboxyl terminal (YRVRFLRKENVTQDAEDNTC-{PEG}; reading uncertain) | – | – | 151 ± 28,**** | 345 ± 3,****
